Consider eight compounds from ChEMBL document CHEMBL3734661, “The chemistry and pharmacology of privileged pyrroloquinazolines” (Medchemcomm, 2015).

The subject of series [1] is L1210. Briefly: Cytotoxicity against mouse L1210 cells assessed as growth inhibition after 48 hrs by MTT assay. The format is functional, cell-based. To be noted: L1210, 48 h. (Tetrazolium dyes change colour on reduction, which living cells bring about.)
Series [2] concerns the target T1, Dihydrofolate reductase (Mus musculus, UniProt P00375).
T1 sequence (P00375 whole entry): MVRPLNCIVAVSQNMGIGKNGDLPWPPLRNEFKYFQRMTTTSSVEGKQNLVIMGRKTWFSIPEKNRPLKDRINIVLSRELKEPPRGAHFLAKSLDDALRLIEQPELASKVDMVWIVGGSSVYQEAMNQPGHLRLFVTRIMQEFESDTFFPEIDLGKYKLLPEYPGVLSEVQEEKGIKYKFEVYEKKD
Briefly: Inhibition of DHFR in mouse L1210 cells using dihydrofolate as substrate preincubated for 5 mins followed by substrate addition by spectrofluorometric analysis. The format is cell-based.

The target of series [3] is T2, Dihydrofolate reductase (Rattus norvegicus, UniProt Q920D2).
T2 sequence (Q920D2 whole entry): T1 sequence (P00375 whole entry) with P27L, R85Q, R99K, I115V, G155E, V170I
Kind of series: Inhibition of rat DHFR extracted from liver using dihydrofolate as substrate preincubated for 5 mins followed by substrate addition by spectrofluorometric analysis.

A short description of series [4]: Inhibition of DHFR in Crithidia oncopelti using dihydrofolate as substrate preincubated for 5 mins followed by substrate addition by spectrofluorometric analysis.
Series [5] concerns the target Dihydrofolate reductase (Lactobacillus casei, UniProt P00381). Briefly: Inhibition of DHFR in Lactobacillus casei using dihydrofolate as substrate preincubated for 5 mins followed by substrate addition by spectrofluorometric analysis. Also noted: species or system Lacticaseibacillus casei.
Series [6] in a line: Cytotoxic activity against human HL60 cells. To be noted: HL-60. The format is functional, cell-based.
Series [7] deals with Human alphaherpesvirus 1. Briefly: Antiviral activity against HSV1 after 1.5 hrs by microtiter plate reader analysis. The following applies: Human alphaherpesvirus 1, 1.5 h.
In series [8] the test system is Candida. Kind of series: Antifungal activity against Candida clinical isolates after 24 hrs by microtiter method. It counts as functional.
The test system of series [9] is Candida albicans. Briefly: Antifungal activity against Candida albicans after 24 hrs by microtiter method. It counts as functional.
Series [10] is described as follows: Volume of distribution in Beagle dog at 2.5 mg/kg, iv. It counts as ADME, organism-based, Canis lupus familiaris. The following applies: in vivo.
Series [11] can be described thus: Oral bioavailability in Beagle dog at 5 mg/kg. It counts as ADME, organism-based, Canis lupus familiaris. The following applies: in vivo.
The nature of series [12]: Cytotoxicity against human HCT8 cells assessed as growth inhibition by MTT assay. It counts as functional. To be noted: HCT-8.
Series [13] is described as follows: Half life in Beagle dog at 2.5 mg/kg, iv. It counts as ADME, organism-based, Canis lupus familiaris. The following applies: in vivo.
Series [14] is described as follows: Tmax in Beagle dog at 5 mg/kg, po. The format is ADME, organism-based, Canis lupus familiaris. The following applies: in vivo.
The target of series [15] is T3, Dihydrofolate reductase (Homo sapiens, UniProt P00374).
T3 sequence (P00374 whole entry): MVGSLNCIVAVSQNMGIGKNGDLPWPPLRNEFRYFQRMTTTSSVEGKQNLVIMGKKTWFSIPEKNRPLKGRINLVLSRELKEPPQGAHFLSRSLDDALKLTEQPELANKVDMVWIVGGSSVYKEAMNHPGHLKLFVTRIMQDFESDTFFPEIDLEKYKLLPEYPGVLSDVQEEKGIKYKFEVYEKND
Kind of series: Competitive inhibition of human recombinant DHFR preincubated for 2 mins followed by substrate addition in presence of dihydrofolate.

Series [16] is described as follows: Half life in Beagle dog at 5 mg/kg, po. The format is ADME, organism-based, Canis lupus familiaris. To be noted: in vivo.
Series [17] can be described thus: Cmax in Beagle dog at 5 mg/kg, po after 1.8 hrs. Also noted: dose 5 mg/kg, route oral. To be noted: in vivo. The format is ADME, organism-based, Canis lupus familiaris.
For series [18], the system named is Plasmodium falciparum. Briefly: Antimalarial activity against Plasmodium falciparum D6 assessed as [3H]hypoxantine incorporation preincubated for 48 hrs followed by [3H]hypoxantine addition measured after 18 hrs by scintillation counting analysis. The format is functional, organism-based.
For series [19], the system named is Plasmodium falciparum. Briefly: Antimalarial activity against Plasmodium falciparum RCS assessed as [3H]hypoxantine incorporation preincubated for 48 hrs followed by [3H]hypoxantine addition measured after 18 hrs by scintillation counting analysis. It counts as functional, organism-based.
Series [20] concerns Plasmodium falciparum. Briefly: Antimalarial activity against Plasmodium falciparum W-2 assessed as [3H]hypoxantine incorporation preincubated for 48 hrs followed by [3H]hypoxantine addition measured after 18 hrs by scintillation counting analysis. It counts as functional, organism-based.
Series [21] in a line: Therapeutic index, ratio of MTD for Sprague-Dawley rat to MCD for Plasmodium berghei infected in Sprague-Dawley rat. To be noted: read-out: TI.
The test system of series [22] is Plasmodium falciparum. Briefly: Antimalarial activity against Plasmodium falciparum TM91C235 assessed as [3H]hypoxantine incorporation preincubated for 48 hrs followed by [3H]hypoxantine addition measured after 18 hrs by scintillation counting analysis. The format is functional, organism-based.

Molecules are shown by their SMILES. Positions count from the first letter of the chain named. ≈ marks a conversion by molar mass, not a printed value.

In general, IC50 refers to the point on the concentration scale where inhibition reaches its midpoint. As a reminder, the MIC is the smallest concentration in the dilution series that meets the test's criterion for growth inhibition. Lower therefore signals a more susceptible organism. As usually defined, the bioavailability is dose-corrected exposure relative to a reference, in per cent. Low readings indicate poor availability, high ones good availability. Usually GI50 stands for the concentration that inhibits growth by half. What is called half-life is the time in which the quantity being followed falls by half. The term Tmax denotes the time at which the peak concentration occurs. What is called Ki is a measure of affinity in units of concentration, obtained from inhibition or displacement. What is called Cmax is the maximum level reached in the sampled fluid or tissue.

Turning to `N#Cc1ccc(Cn2ccc3c4c(N)nc(N)nc4ccc32)cc1`, the IC50 in [1] came out at 40 nM; in series [2], 4 nM; in series [3] it was 2.1 nM; in series [4], 0.7 nM; in series [5] it was 6.4 nM.
As to `CCn1c2ccccc2c2c3c(=O)[nH]c(NCCN(C)C)nc3ccc21`, in series [6], inhibition was half-maximal at 17000 nM (IC50).
For `Cc1cc2c(ccc3nc(N)nc(N)c32)[nH]1`, the midpoint of inhibition in series [7], the IC50, lay at 15000 nM.
On to `Nc1nc(N)c2c(ccc3c2ccn3Cc2ccccc2)n1`, for which the MIC in series [8] and in series [9] was 0.64 µg/mL (≈ 2.21 µM) throughout.
With `Nc1nc(N)c2c(ccc3c2ccn3CC2CC2)n1`, the MIC in series [8] and in series [9] was 1.39 µg/mL (≈ 5.49 µM) throughout.
In series [10], `CCC(CC)n1c(C)cc2c3c(N)nc(N)nc3ccc21` gave a Vd of 9.3 L/g. Moreover, in series [11], the bioavailability was found to be 49%. In addition, in series [12], the GI50 is 0.74 nM. Besides, the results for the half-life in series [13] and in series [16] were 2.8 h and 4 h, respectively. Also, the Tmax in [14] was 1.8 h. For the same compound, in [15], the Ki is 0.0003 nM. The compound further registered an MIC in [9] of 0.025 µg/mL (≈ 0.0882 µM). In addition, the peak concentration (Cmax) in series [17] came to 170 ng/mL.
In the case of `CC(=O)N(C(C)=O)c1nc(N(C(C)=O)C(C)=O)c2c(ccc3c2ccn3Cc2ccccc2C(F)(F)F)n1`, the IC50 in series [18] is 0.046 nM; in [19] it was 0.046 nM; in series [20], 0.14 nM; in [22] it was 0.16 nM. The selectivity ratio in [21] was 80.
`Nc1nc(N)c2c(ccc3[nH]ccc32)n1`: the inhibitory constant (Ki) in [15] is 1 nM.
